Patent US20050256034A1, “Dioxolane analogs for improved inter-cellular delivery” (priority 2000, published 2005)
Like-named read-outs stand apart in the source and are kept apart here.

Assays:
Type in all cases: cell-based
[1] = tested on: CEM/dCK-; test: MMT or WST-1 assay at 72 hr
[2] = tested on: MCF-7; test: MTT assay at 72 hr; conditions: Homo sapiens, MCF7, read-out: IC50 (MTT at 72 hr) MCF-7, 24 h exposure, single experiments
[3] = tested on: CCRF-CEM; test: MMT or WST-1 assay at 72 hr; conditions: Homo sapiens, read-out: IC50 (MMT or WST-1 at 72 hr) CCRF-CEM, 24 h exposure, single experiments
[4] = tested on: H-460; test: MTT assay at 72 hr; conditions: Homo sapiens, NCI-H460, read-out: IC50 (MTT at 72 hr) H-460, 24 h exposure, single experiments
[5] = tested on: SF-268; test: MTT assay at 72 hr; conditions: Homo sapiens, SF-268, read-out: IC50 (MTT at 72 hr) SF-268, 24 h exposure, single experiments
[6] = 3H-Thymidine Incorporation Assay (24 hr drug, wash, another 48 hr; 72 hr assay); conditions: 24 hr exposure to drug, wash, another 48 hr

Nc1ccn([C@@H]2CO[C@H](COC(=O)C34CCC[C@@H]5C[C@@H]3C[C@H]5C4)O2)c(=O)n1 [Compound 232, HEXAHYDRO-2,5-METHANO-PENTA- LENE-3A-CARBOXYLIC ACID 4-(4-AMINO-2-OXO-2H-PYRIMI- DIN-1-YL)-[1,3]DI- OXOLAN-2-YL METHYL ESTER]
Resistance Factor ([1]; CEM/dCK- versus CCRF-CEM): 210
IC50 ([1]; read-out: IC50 (MMT or WST-1 at 72 hr) CEM/dCK-, 24 h exposure, single experiments): 2100 nM
IC50 [2]: 20 nM
IC50 [3]: 10 nM
IC50 [4]: 6.9 nM
IC50 [5]: 160 nM
IC50 ([6]; CCRF-CEM, read-out: IC50 (3H-TdR incorporation at 72 hr) CCRF-CEM 24 h, CCRF-CEM T-cell leukemia): 3.7 nM
IC50 ([6]; CCRF-CEM, read-out: IC50 (3H-TdR incorporation at 72 hr) CEM/dCK- 24 h, CEM/dCK- (CCRF-CEM deoxycytidine kinase-deficient)): 5800 nM
IC50 ([6]; NCI-H460, read-out: IC50 (3H-TdR incorporation at 72 hr) H-460 24 h, H-460 human lung carcinoma): 0.53 nM
IC50 ([6]; read-out: IC50 (3H-TdR incorporation at 72 hr) CCRF-CEM 24 h, CCRF-CEM T-cell leukemia): 1.9 nM
IC50 ([6]; read-out: IC50 (3H-TdR incorporation at 72 hr) CEM/dCK- 24 h, CEM/dCK- (CCRF-CEM deoxycytidine kinase-deficient)): 4500 nM
IC50 ([6]; read-out: IC50 (3H-TdR incorporation at 72 hr) H-460 24 h, H-460 human lung carcinoma): 0.38 nM
